Reference: patent US20200000721A1, “AQUEOUS COMPOSITIONS AND ASSOCIATED CREAM FORMULATIONS” (MedReleaf Corp., priority 2018, published 2020)

Tested on: microbial growth in the aqueous composition
Details: 0.09% in aqueous composition of Table 6
Method: Microbiological testing was conducted according to USP <51> and USP (Antimicrobial Effectiveness Test) and USP <61> and <62> (Suitability Testing) in order to compare the effectiveness of 1) 0.09% potassium sorbate 2) 0.045% potassium sorbate and 0.045% Euxul™ 9010 and 3) 0.09% Euxul™ 9010 as an antimicrobial agent for prohibiting microbial growth in the aqueous composition described in Table 6.

With `C/C=C/C=C/C(=O)[O-].[K+]` [potassium sorbate] as the compound, how does the “effectiveness as antimicrobial agent (comparison)” value read?
Its value is “as effective as Euxul™ 9010 and/or the combination of Euxul™ 9010 and potassium sorbate”.
